38 compounds from ChEMBL document CHEMBL1142795, “Synthesis, structure-activity relationships, and anxiolytic activity of 7-aryl-6,7-dihydroimidazoimidazole corticotropin-releasing factor 1 receptor antagonists” (Bioorg Med Chem Lett, 2005) can be followed below.

System in the first data set: not listed separately
Put plainly: Area under curve (0-24 hr) upon oral administration of 10 mg/kg of dose in a dosing vehicle of 10/10/80 cremaphor/DMSO/water. The note with it: in vivo. Type of data set: ADME, organism-based. Also on record: time < 24 hr, dose 10 mg/kg, route oral.
For orientation: AUC(0-t) means the area under the concentration-time curve up to a stated or last time point. For `CCCN(CC1CC1)C(=O)c1c(CC)nc2n1CCN2c1c(C)cc(C)cc1C`, the AUC(0-t) at 24 h worked out at 1520 ng·h/mL.

The target of a further data set is T1, Corticotropin-releasing factor receptor 1 (Homo sapiens, UniProt P34998).
T1 sequence (P34998 whole entry): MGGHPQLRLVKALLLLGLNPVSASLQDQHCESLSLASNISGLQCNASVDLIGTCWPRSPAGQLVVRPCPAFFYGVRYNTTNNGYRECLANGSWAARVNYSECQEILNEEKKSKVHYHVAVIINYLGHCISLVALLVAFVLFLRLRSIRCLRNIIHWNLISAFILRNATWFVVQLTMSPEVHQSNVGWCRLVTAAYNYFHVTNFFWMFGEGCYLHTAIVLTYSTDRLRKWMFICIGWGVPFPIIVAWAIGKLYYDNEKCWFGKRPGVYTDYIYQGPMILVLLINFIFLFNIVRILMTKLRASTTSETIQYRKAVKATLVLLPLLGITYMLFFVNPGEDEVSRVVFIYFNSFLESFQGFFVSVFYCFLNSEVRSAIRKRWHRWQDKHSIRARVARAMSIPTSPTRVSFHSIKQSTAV
The data set can be described thus: Displacement of [125I]-Tyr-o- CRF from human corticotropin releasing factor receptor 1 expressed in IMR-32 cells. Type of data set: cell-based.
Conditions: not given
Background: Displacement assays read how much labelled ligand stays bound in the presence of the test substance.
One may read the Ki as a measure of affinity in units of concentration, obtained from inhibition or displacement. Higher therefore signals a looser hold on the target. Turning to `CCc1nc2n(c1C(=O)N(CC1CC1)CC1CC1)CCN2c1c(C)cc(C)cc1C`, the inhibitory constant (Ki) was 68 nM. Take `CCc1nc2n(c1C(=O)Nc1ccccc1)CCN2c1c(C)cc(C)cc1C`: the Ki is above 10000 nM.

As to `CCCCN(CC)C(=O)c1c(CC)nc2n1CCN2c1c(C)cc(C)cc1C`, the affinity corresponds to a Ki of 290 nM. On the same count and under the same terms, the same measure for `CCCN(CCC1CC1)C(=O)c1c(CC)nc2n1CCN2c1c(C)cc(C)cc1C`: 770 nM; for `CCc1nc2n(c1C(=O)N1CCN(C(C)=O)CC1)CCN2c1c(C)cc(C)cc1C`: above 10000 nM.

As to `CCCN(Cc1c(CC)nc2n1CCN2c1c(C)cc(C)cc1C)CC1CC1`, the inhibition constant (Ki) was 19000 nM. For `CCc1nc2n(c1C(=O)N(Cc1ccccc1)Cc1ccccc1)CCN2c1c(C)cc(C)cc1C`, the Ki is above 10000 nM. The same measure, in the same setting: the same measure for `CCCN(CC1CC1)C(=O)c1c(C)nc2n1CCN2c1c(C)cc(C)cc1C`: 220 nM. On the same count and under the same terms, the same measure for `CCCN(Cc1ccccc1)C(=O)c1c(CC)nc2n1CCN2c1c(C)cc(C)cc1C`: 4100 nM. Same read-out and setting: the same measure for `C=CCN(CC=C)C(=O)c1c(CC)nc2n1CCN2c1c(C)cc(C)cc1C`: 3000 nM; for `CCc1nc2n(c1C(=O)N(CC1CC1)CC(F)(F)F)CCN2c1ccc(C(C)C)cc1Br`: 270 nM; for `CCCN(Cc1ccc(Cl)cc1)C(=O)c1c(CC)nc2n1CCN2c1c(C)cc(C)cc1C`: 3000 nM. In turn, `CCc1nc2n(c1C(=O)N(CCC(F)(F)F)Cc1ccc(Cl)cc1)CCN2c1c(C)cc(C)cc1C` gave a Ki of 270 nM.

The compound `CCc1nc2n(c1C(=O)N(CC1CC1)CC(F)(F)C(F)(F)F)CCN2c1c(C)cc(C)cc1C` yielded a Ki of 63 nM.

In turn, `CCc1nc2n(c1C(=O)N(CC)CC1CC1)CCN2c1c(C)cc(C)cc1C` had a Ki of 94 nM. `CCc1nc2n(c1C(=O)N(CC)CCC1CC1)CCN2c1c(C)cc(C)cc1C` had an inhibition constant Ki of 610 nM. Still for that read-out and setting: the result for `CCc1nc2n(c1C(=O)N(CC)CCN(C)C)CCN2c1c(C)cc(C)cc1C` reads above 10000 nM; that for `CCc1nc2n(c1C(=O)N(CCC1CC1)CCC(F)(F)F)CCN2c1c(C)cc(C)cc1C`, 650 nM; that for `CCCN(Cc1cccc(F)c1)C(=O)c1c(CC)nc2n1CCN2c1c(C)cc(C)cc1C`, 4200 nM. The same measure, in the same setting: the result for `CCCN(CC1CC1)C(=O)c1c(CC)nc2n1CCN2c1c(C)cc(C)cc1Br` reads 126 nM. Still for that read-out and setting: the same measure for `CCc1nc2n(c1C(=O)N(CC1CC1)CC(F)(F)F)CCN2c1c(C)cc(C)cc1Br`: 26 nM.

`CCc1nc2n(c1C(=O)N1CCN(c3ccccc3F)CC1)CCN2c1c(C)cc(C)cc1C`: the Ki is above 10000 nM. In turn, `CCCN(CC1CC1)C(=O)c1c(CC)nc2n1CCN2c1ccc(C(C)C)cc1Br` had an inhibitory constant (Ki) of 1560 nM. That is a single-digit micromolar value. Compound `CCc1nc2n(c1C(=O)N1CCNCC1)CCN2c1c(C)cc(C)cc1C` returned a Ki above 10000 nM. Same read-out and setting: the same measure for `CCCN(CCC(F)(F)F)C(=O)c1c(CC)nc2n1CCN2c1c(C)cc(C)cc1C`: 220 nM.

The compound `CCCN(CCc1ccccc1)C(=O)c1c(CC)nc2n1CCN2c1c(C)cc(C)cc1C` gave an inhibition constant Ki of 220 nM.

For `CCCN(CC1CC1)C(=O)c1c(CC)nc2n1CCN2c1c(C)cc(Cl)cc1Cl`, the inhibition constant (Ki) came out at 75 nM. `CCc1nc2n(c1C(=O)N(CCC(F)(F)F)Cc1ccccc1)CCN2c1c(C)cc(C)cc1C` showed an inhibitory constant (Ki) of 660 nM. Still for that read-out and setting: the result for `CCc1nc2n(c1C(=O)N(CC1CC1)CC(F)(F)F)CCN2c1c(C)cc(C)cc1C` reads 41 nM; that for `CCc1nc2n(c1C(=O)N(CC1CC1)CC(F)(F)F)CCN2c1c(C)cc(C)cc1Cl`, 41 nM; that for `CCCN(CC1CC1)C(=O)c1c(CC)nc2n1CCN2c1c(C)cc(C)cc1C`, 42 nM. Still for that read-out and setting: the result for `CCCN(Cc1c(C)nc2n1CCN2c1c(C)cc(C)cc1C)CC1CC1` reads 6600 nM; that for `CCc1nc2n(c1C(=O)N(CC1CC1)CC(F)(F)F)CCN2c1c(C)cc(Cl)cc1Cl`, 24 nM; that for `CCCN(CCC)C(=O)c1c(CC)nc2n1CCN2c1c(C)cc(C)cc1C`, 100 nM. Still for that read-out and setting: the result for `C=CCN(CCC)C(=O)c1c(CC)nc2n1CCN2c1c(C)cc(C)cc1C` reads 740 nM; that for `CCCN(CC1CC1)C(=O)c1c(CC)nc2n1CCN2c1c(C)cc(C)cc1Cl`, 94 nM. Turning to `CCCN(CC(F)(F)F)C(=O)c1c(CC)nc2n1CCN2c1c(C)cc(C)cc1C`, affinity was put at a Ki of 61 nM.

The compound `CCc1nc2n(c1C(=O)N(CCC(F)(F)F)CC1CC1)CCN2c1c(C)cc(C)cc1C` came in with an inhibitory constant (Ki) of 73 nM.

System in a further data set: not listed separately
Put plainly: Maximum concentration upon oral administration of 10 mg/kg of dose in a dosing vehicle of 10/10/80 cremaphor/DMSO/water. Also on record: dose 10 mg/kg, route oral. Type of data set: ADME, organism-based. Particulars: in vivo.
Usually Cmax stands for the maximum level reached in the sampled fluid or tissue. For `CCCN(CC1CC1)C(=O)c1c(CC)nc2n1CCN2c1c(C)cc(C)cc1C`, the Cmax worked out at 250 ng/mL.

System in the next data set: not listed separately
The data set can be described thus: Clearance upon intravenous administration of 2 mg/kg of dose in a dosing vehicle of 10/10/80 cremaphor/DMSO/water. Also on record: dose 2 mg/kg, route intravenous. The note with it: in vivo. Format: ADME, organism-based.
One may read the clearance as the rate of elimination divided by the concentration. Low values mean inefficient removal, high ones efficient removal. In turn, `CCCN(CC1CC1)C(=O)c1c(CC)nc2n1CCN2c1c(C)cc(C)cc1C` came in with a clearance of 35 mL/min/kg.

System in another data set: not listed separately
Put plainly: Volume of distribution upon intravenous administration of 2 mg/kg of dose in a dosing vehicle of 10/10/80 cremaphor/DMSO/water. Format: ADME, organism-based. Also noted: dose 2 mg/kg, route intravenous. Particulars: in vivo.
A word on the Vd: it is a proportionality between amount in the body and measured concentration, not a real space. Read a low Vd as confinement near the circulation. `CCCN(CC1CC1)C(=O)c1c(CC)nc2n1CCN2c1c(C)cc(C)cc1C`: the Vd is 5.7 L/kg.

System in the next data set: not listed separately
The data set can be described thus: Brain to plasma (2 hours) concentration ratio upon intravenous administration of 2 mg/kg of dose in a dosing vehicle of 10/10/80 cremaphor/DMSO/water. Type of data set: ADME, organism-based. Particulars: brain and plasma, read-out: B/P. Also on record: dose 2 mg/kg, route intravenous.
As for `CCCN(CC1CC1)C(=O)c1c(CC)nc2n1CCN2c1c(C)cc(C)cc1C`, the Kp at 2 h worked out at 0.21.

System in a further data set: not listed separately
The data set can be described thus: Maximum time to reach peak concentration upon oral administration of 10 mg/kg of dose in a dosing vehicle of 10/10/80 cremaphor/DMSO/water. Type of data set: ADME, organism-based. Also on record: dose 10 mg/kg, route oral. Particulars: in vivo.
By Tmax is commonly meant the time at which the peak concentration occurs. Turning to `CCCN(CC1CC1)C(=O)c1c(CC)nc2n1CCN2c1c(C)cc(C)cc1C`, the Tmax was 4 h.

System in another data set: not listed separately
Put plainly: Bioavailability upon oral administration of 10 mg/kg of dose in a dosing vehicle of 10/10/80 cremaphor/DMSO/water. Type of data set: ADME, organism-based. Particulars: eutheria, in vivo.
For orientation: bioavailability means the share of a dose that reaches the circulation, judged against a reference dose that is usually intravenous. Lower therefore signals little systemic uptake. `CCCN(CC1CC1)C(=O)c1c(CC)nc2n1CCN2c1c(C)cc(C)cc1C` returned a bioavailability of 32%.
